Laboratory results: PubChem BioAssay AID1963974 (Molecular Pharmacology Branch, DTP, NCI, 2024)

Test system: 648629-189-R-J1-PDC spheroids with HUVEC/MSC, viability
Assay: Anticancer human tumor 648629-189-R-J1-PDC patient-derived bladder carcinoma cell line growth inhibition [PI3K]
Conditions: for IC50: curve of first compound; for viability, T/C: stronger effect = lower value
Summary of the method: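 High-throughput combination screen: PI3K inhibitors crossed with targeted small molecules on complex spheroids of tumor cells, HUVEC and MSCs at 37 degrees C, 5% CO2. Top concentration was at or near clinical Cmax (otherwise 10 microM), with half-log decrements.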

[1] = second compound 0.0316 µM, first compound 0.0316 µM
[2] = second compound 0.0316 µM, first compound 0.1 µM
[3] = second compound 0.0316 µM, first compound 0.316 µM
[4] = second compound 0.0316 µM, first compound 1 µM
[5] = second compound 0.1 µM, first compound 0.0316 µM
[6] = second compound 0.1 µM, first compound 0.1 µM
[7] = second compound 0.1 µM, first compound 0.316 µM
[8] = second compound 0.1 µM, first compound 1 µM
[9] = second compound 0.316 µM, first compound 0.0316 µM
[10] = second compound 0.316 µM, first compound 0.1 µM
[11] = second compound 0.316 µM, first compound 0.316 µM
[12] = second compound 0.316 µM, first compound 1 µM
[13] = second compound 1 µM, first compound 0.0316 µM
[14] = second compound 1 µM, first compound 0.1 µM
[15] = second compound 1 µM, first compound 0.316 µM
[16] = second compound 1 µM, first compound 1 µM
[17] = second compound 3.16 µM, first compound 0.0316 µM
[18] = second compound 3.16 µM, first compound 0.1 µM
[19] = second compound 3.16 µM, first compound 0.316 µM
[20] = second compound 3.16 µM, first compound 1 µM
[21] = second compound 10 µM, first compound 0.0316 µM
[22] = second compound 10 µM, first compound 0.1 µM
[23] = second compound 10 µM, first compound 0.316 µM
[24] = second compound 10 µM, first compound 1 µM
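Further: spheroids exposed to agents for seven days before reading.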
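Wherever viability, T/C is given: percent of vehicle control luminescence where 100% = DMSO treated spheroids.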

With CC(C)NCC(C(=O)N1CCN(c2ncnc3c2C(C)CC3O)CC1)c1ccc(Cl)cc1 (centres undefined) + CC(Nc1ncnc2nc[nH]c12)c1cc2cccc(Cl)c2c(=O)n1-c1ccccc1 the IC50 (second compound 0.0316 µM) was 1050 nM, the IC50 (second compound 0.1 µM) was 1520 nM and the IC50 (second compound 0.316 µM) was 1140 nM. For the same compound, the IC50 (second compound 1 µM) was 1230 nM, the IC50 (second compound 3.16 µM) was 904 nM and the IC50 (second compound 10 µM) was 1010 nM. The viability, T/C [1] was 99.8%, the viability, T/C [2] was 93.6% and the viability, T/C [3] was 82%. It also gave a viability, T/C [4] of 49.4%, a viability, T/C (second compound 0.0316 µM, first compound 3.16 µM) of 28.9% and a viability, T/C (second compound 0.0316 µM, first compound 10 µM) of 17.3%. For the same compound, the viability, T/C [5] was 97.3%, the viability, T/C [6] was 90.3% and the viability, T/C [7] was 79.7%. It also gave a viability, T/C [8] of 61.3%, a viability, T/C (second compound 0.1 µM, first compound 3.16 µM) of 32.2% and a viability, T/C (second compound 0.1 µM, first compound 10 µM) of 19.3%. For the same compound, the viability, T/C [9] was 97.4%, the viability, T/C [10] was 91.2% and the viability, T/C [11] was 76.3%. It also gave a viability, T/C [12] of 53.4%, a viability, T/C (second compound 0.316 µM, first compound 3.16 µM) of 29.2% and a viability, T/C (second compound 0.316 µM, first compound 10 µM) of 17.7%. It also gave a viability, T/C [13] of 93.6%, a viability, T/C [14] of 94.5% and a viability, T/C [15] of 80.7%. The viability, T/C [16] was 54.2%, the viability, T/C (second compound 1 µM, first compound 3.16 µM) was 29.4% and the viability, T/C (second compound 1 µM, first compound 10 µM) was 17.5%. The viability, T/C [17] was 101%, the viability, T/C [18] was 91.3% and the viability, T/C [19] was 72.6%. For the same compound, the viability, T/C [20] was 48.6%, the viability, T/C (second compound 3.16 µM, first compound 3.16 µM) was 25.9% and the viability, T/C (second compound 3.16 µM, first compound 10 µM) was 15.5%. For the same compound, the viability, T/C [21] was 83.8%, the viability, T/C [22] was 72.2% and the viability, T/C [23] was 79.4%. The viability, T/C [24] was 48.4%, the viability, T/C (second compound 10 µM, first compound 3.16 µM) was 28.3% and the viability, T/C (second compound 10 µM, first compound 10 µM) was 18.2%.

For CCN1CCN(Cc2ccc(Nc3ncc(F)c(-c4cc(F)c5nc(C)n(C(C)C)c5c4)n3)nc2)CC1 + CC(Nc1ncnc2nc[nH]c12)c1cc2cccc(Cl)c2c(=O)n1-c1ccccc1, the IC50 (second compound 0.0316 µM) was greater than 1000 nM, the IC50 (second compound 0.1 µM) was greater than 1000 nM and the IC50 (second compound 0.316 µM) was greater than 1000 nM. It also gave an IC50 (second compound 1 µM) greater than 1000 nM, an IC50 (second compound 3.16 µM) greater than 1000 nM and an IC50 (second compound 10 µM) greater than 1000 nM. For the same compound, the viability, T/C (second compound 0.0316 µM, first compound 0.00316 µM) was 90.1%, the viability, T/C (second compound 0.0316 µM, first compound 0.01 µM) was 96.2% and the viability, T/C [1] was 105%. The viability, T/C [2] was 111%, the viability, T/C [3] was 113% and the viability, T/C [4] was 122%. It also gave a viability, T/C (second compound 0.1 µM, first compound 0.00316 µM) of 107%, a viability, T/C (second compound 0.1 µM, first compound 0.01 µM) of 99.4% and a viability, T/C [5] of 103%. It also gave a viability, T/C [6] of 101%, a viability, T/C [7] of 101% and a viability, T/C [8] of 135%. The viability, T/C (second compound 0.316 µM, first compound 0.00316 µM) was 105%, the viability, T/C (second compound 0.316 µM, first compound 0.01 µM) was 96.3% and the viability, T/C [9] was 98%. For the same compound, the viability, T/C [10] was 108%, the viability, T/C [11] was 113% and the viability, T/C [12] was 109%. It also gave a viability, T/C (second compound 1 µM, first compound 0.00316 µM) of 106%, a viability, T/C (second compound 1 µM, first compound 0.01 µM) of 92.5% and a viability, T/C [13] of 100%. It also gave a viability, T/C [14] of 90.3%, a viability, T/C [15] of 103% and a viability, T/C [16] of 96.4%. For the same compound, the viability, T/C (second compound 3.16 µM, first compound 0.00316 µM) was 85.8%, the viability, T/C (second compound 3.16 µM, first compound 0.01 µM) was 106% and the viability, T/C [17] was 86.8%. For the same compound, the viability, T/C [18] was 88.2%, the viability, T/C [19] was 111% and the viability, T/C [20] was 105%. For the same compound, the viability, T/C (second compound 10 µM, first compound 0.00316 µM) was 85.6%, the viability, T/C (second compound 10 µM, first compound 0.01 µM) was 80.7% and the viability, T/C [21] was 84.4%. It also gave a viability, T/C [22] of 88%, a viability, T/C [23] of 87% and a viability, T/C [24] of 75.5%.
